According to US20210337789A1, “Derivatives of m-Guaiacol, Their Preparation and Their Uses” (Universite de Caen Normandie, priority 2018, published 2021):

Legend:
[1] = tested on: Stenotrophomonas maltophila; assay: Bacterial growth screening on wild-type phenotype strain, S. maltophila; type: cell-based
Procedure: (§1) The bacterial growth is evaluated by measuring the optical density (DO) at 600 nm using NanoDrop.
(§2) This ratio permits a classification of the molecules in 4 effect levels: • 0=no effect observed; • 1=effect observed only when the molecule is tested pure; • 2=effect observed at several concentrations, but which gradually decreases the dilutions; • 3=strong effect observed at each concentration of molecule tested.
A screening of molecules of the invention on several wild-type phenotype strains has been carried out.
The strains initially selected are: • Gram+: Streptococcus equi subsp zooepidemicus and Staphylococcus aureus • Gram−: Escherichia coli, Klebsiella pneumoniae and Stenotrophomonas maltophila.

[2] = tested on: K. pneumoniae strains presenting high levels of resistance; assay: Bacterial growth on K. pneumoniae strains presenting high levels of resistance; type: cell-based, Klebsiella pneumoniae; parameters: key to Effects (0 < 1 < 2 < 3): 0 = no effect; 1 = pure only; 2 = several concs; 3 = strong at each; key to Δ DO: change in optical density measured at 600 nm; settings: for Effects (0 < 1 < 2 < 3): molecules at 1, 0.5 and 0.1 mg/ml, triclosan at 0.1 mg/ml
Procedure: as §1, §2
Compounds of the invention were tested on 4 strains of E. coli, 3 strains of K. pneumoniae and 4 strains of S. aureus with the resistance profiles below.

SMILES: COc1cc(O)c(Br)c(Cl)c1F [sr7615]
- Effect level, S. maltophila [1]: 2
- Δ DO ([2]; K. pneumoniae Strain 1, 0.1 mg/ml): 0.025
- Δ DO ([2]; K. pneumoniae Strain 1, 0.5 mg/ml): 0.490
- Δ DO ([2]; K. pneumoniae Strain 1, 1 mg/ml): 0.640
- Effects (0 < 1 < 2 < 3) ([2]; K. pneumoniae Strain 1): 2
- Δ DO ([2]; K. pneumoniae Strain 2, 0.1 mg/ml): −0.021
- Δ DO ([2]; K. pneumoniae Strain 2, 0.5 mg/ml): 0.518
- Δ DO ([2]; K. pneumoniae Strain 2, 1 mg/ml): 0.621
- Effects (0 < 1 < 2 < 3) ([2]; K. pneumoniae Strain 2): 2
- Δ DO ([2]; K. pneumoniae Strain 3, 0.1 mg/ml): 0.134
- Δ DO ([2]; K. pneumoniae Strain 3, 0.5 mg/ml): 0.598
- Δ DO ([2]; K. pneumoniae Strain 3, 1 mg/ml): 0.913
- Effects (0 < 1 < 2 < 3) ([2]; K. pneumoniae Strain 3): 2
